# Reference: paper PMC6915728 (Nature Communications, 2019)
# Where two headings read alike, the source gives them in different places.
# Key:
# [1] = system: bacterial species in which the gene showed activity; details: Salmonella enterica serovar Typhimurium; ref http://aac.asm.org/content/52/8/2734.full.pdf+html; cited from earlier work
# [2] = system: E. coli gene overexpression; details: cited from earlier work
# Source text: Supplement 41467_2019_13618_MOESM1_ESM.docx, table 1: Supplementary Table 1. Collected examples of E. coli gene overexpression from the literature as a confirmation of our chemical-genetic screen results. | column: Overexpression phenotype
# [3] = system: AMP-evolved E. coli lines; assay: Cross-resistance / collateral sensitivity: relative MIC change of 38 laboratory-evolved AMP-resistant lines vs parental strain; format: cell-based, Escherichia coli; details: measured here
sequence,measurement,setting,value
"RRRPRPPYLPRPRPPPFFPPRLPPRIPPGFPPRFPPRFP [PR39, PR-39, cathelicidin, source pig; cluster C4]",Gene that modulates bacterial susceptibility to the AMP,[1],sbmA
same,"Overexpression phenotype, Literature","[2]; gene ptrB overexpressed, ref 2 (Mattiuzzo et al. 2014)",Resistance^2
same,"Overexpression phenotype, Literature","[2]; gene sbmA overexpressed, ref 9 (Pranting et al. 2008)",Sensitivity^9
same,Relative change in MIC (MIC of the AMP-adpated line / MIC of the ancestral strain),[3]; AMP-adapted line BAC5_3,1.32
same,Relative change in MIC (MIC of the AMP-adpated line / MIC of the ancestral strain),[3]; AMP-adapted line BAC5_5,1.464
same,Relative change in MIC (MIC of the AMP-adpated line / MIC of the ancestral strain),[3]; AMP-adapted line BAC5_7,1.584
same,Relative change in MIC (MIC of the AMP-adpated line / MIC of the ancestral strain),[3]; AMP-adapted line BAC5_10,1.57
same,Relative change in MIC (MIC of the AMP-adpated line / MIC of the ancestral strain),[3]; AMP-adapted line CAP18_2,1
same,Relative change in MIC (MIC of the AMP-adpated line / MIC of the ancestral strain),[3]; AMP-adapted line CAP18_5,0.915
same,Relative change in MIC (MIC of the AMP-adpated line / MIC of the ancestral strain),[3]; AMP-adapted line CAP18_6,0.83
same,Relative change in MIC (MIC of the AMP-adpated line / MIC of the ancestral strain),[3]; AMP-adapted line CAP18_8,1
same,Relative change in MIC (MIC of the AMP-adpated line / MIC of the ancestral strain),[3]; AMP-adapted line CAP18_10,0.83
same,Relative change in MIC (MIC of the AMP-adpated line / MIC of the ancestral strain),[3]; AMP-adapted line HBD3_3,1
same,Relative change in MIC (MIC of the AMP-adpated line / MIC of the ancestral strain),[3]; AMP-adapted line HBD3_6,0.915
same,Relative change in MIC (MIC of the AMP-adpated line / MIC of the ancestral strain),[3]; AMP-adapted line HBD3_8,1.1
same,Relative change in MIC (MIC of the AMP-adpated line / MIC of the ancestral strain),[3]; AMP-adapted line HBD3_10,1.1
same,Relative change in MIC (MIC of the AMP-adpated line / MIC of the ancestral strain),[3]; AMP-adapted line LL37_1,1.1
same,Relative change in MIC (MIC of the AMP-adpated line / MIC of the ancestral strain),[3]; AMP-adapted line LL37_3,1.1
same,Relative change in MIC (MIC of the AMP-adpated line / MIC of the ancestral strain),[3]; AMP-adapted line LL37_6,1.1
same,Relative change in MIC (MIC of the AMP-adpated line / MIC of the ancestral strain),[3]; AMP-adapted line LL37_7,1.2
same,Relative change in MIC (MIC of the AMP-adpated line / MIC of the ancestral strain),[3]; AMP-adapted line LL37_10,0.915
same,Relative change in MIC (MIC of the AMP-adpated line / MIC of the ancestral strain),[3]; AMP-adapted line PEX_1,1
same,Relative change in MIC (MIC of the AMP-adpated line / MIC of the ancestral strain),[3]; AMP-adapted line PEX_4,1
same,Relative change in MIC (MIC of the AMP-adpated line / MIC of the ancestral strain),[3]; AMP-adapted line PEX_5,0.915
same,Relative change in MIC (MIC of the AMP-adpated line / MIC of the ancestral strain),[3]; AMP-adapted line PEX_6,1
same,Relative change in MIC (MIC of the AMP-adpated line / MIC of the ancestral strain),[3]; AMP-adapted line PEX_7,1
same,Relative change in MIC (MIC of the AMP-adpated line / MIC of the ancestral strain),[3]; AMP-adapted line PROA_2,1
same,Relative change in MIC (MIC of the AMP-adpated line / MIC of the ancestral strain),[3]; AMP-adapted line PROA_3,0.915
same,Relative change in MIC (MIC of the AMP-adpated line / MIC of the ancestral strain),[3]; AMP-adapted line PROA_7,1
same,Relative change in MIC (MIC of the AMP-adpated line / MIC of the ancestral strain),[3]; AMP-adapted line PROA_8,1
same,Relative change in MIC (MIC of the AMP-adpated line / MIC of the ancestral strain),[3]; AMP-adapted line PROA_9,1
same,Relative change in MIC (MIC of the AMP-adpated line / MIC of the ancestral strain),[3]; AMP-adapted line PXB_2,1.728
same,Relative change in MIC (MIC of the AMP-adpated line / MIC of the ancestral strain),[3]; AMP-adapted line PXB_5,1.44
same,Relative change in MIC (MIC of the AMP-adpated line / MIC of the ancestral strain),[3]; AMP-adapted line PXB_6,1.728
same,Relative change in MIC (MIC of the AMP-adpated line / MIC of the ancestral strain),[3]; AMP-adapted line PXB_8,1.44
same,Relative change in MIC (MIC of the AMP-adpated line / MIC of the ancestral strain),[3]; AMP-adapted line PXB_10,1
